Laboratory results taken from patent US6469028B1, “Synthesis and use of retinoid compounds having negative hormone and/or anatgonist activities” (Allergan, Inc., priority 1995, dated 2002).
pKd: −log10 of the molar value. Like-named read-outs stand apart in the source and are kept apart here.

Columns and labels:
RARβ = target: T1, RARβ (Homo sapiens, UniProt P10826); experiment: Example 7: inhibition of RAR transactivation by ATRA, CV-1 cells; format: cell-based; parameters: expressed in transfected cells; host or cells: green monkey CV-1 cells; conditions: equal doses of AGN 193109 and ATRA (10 nM ATRA)
T1 sequence (P10826 1-448 isoform P10826-2): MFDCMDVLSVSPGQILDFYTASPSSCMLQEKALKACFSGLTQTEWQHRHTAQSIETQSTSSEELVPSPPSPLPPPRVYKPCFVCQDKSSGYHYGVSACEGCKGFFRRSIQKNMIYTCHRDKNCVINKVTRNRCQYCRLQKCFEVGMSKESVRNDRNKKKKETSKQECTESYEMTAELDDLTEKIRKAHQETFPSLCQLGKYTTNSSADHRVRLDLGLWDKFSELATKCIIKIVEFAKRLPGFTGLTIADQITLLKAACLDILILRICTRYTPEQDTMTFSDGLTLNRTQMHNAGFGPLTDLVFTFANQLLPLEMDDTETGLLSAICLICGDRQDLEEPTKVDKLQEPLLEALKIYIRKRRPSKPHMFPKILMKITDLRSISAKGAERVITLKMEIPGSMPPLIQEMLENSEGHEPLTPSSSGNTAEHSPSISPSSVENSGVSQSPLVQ
Protocol: (§1) Eukaryotic expression vectors pRShRAR-α (Giguere et al. Nature 330:624 (1987)), pRShRAR-β (Benbrook et al. Nature 333:669 (1988)) and pRShRAR-γ (Ishikawa et al. Mol. Endocrinol. 4:837 (1990)) were cotransfected with the Δ-MTV-Luc reporter plasmid described by Hollenberg et al. (Cell 55:899.(1988)). […] Calcium phosphate transfections were carried out exactly as described in Example 6. […] Cell lysates and luciferase activity measurements were also performed as in Example 6.

[1] = test system: RAR-γ-VP-16 with ER-RXR-α
RARα [2] = target: T2, RARα (Homo sapiens, UniProt P10276); experiment: Example 7: inhibition of RAR transactivation by ATRA, CV-1 cells; format: cell-based; parameters: host or cells: TNT-coupled reticulocyte lysate in vitro transcription-translation; conditions: equal doses of AGN 193109 and ATRA (10 nM ATRA)
T2 sequence (P10276 1-462): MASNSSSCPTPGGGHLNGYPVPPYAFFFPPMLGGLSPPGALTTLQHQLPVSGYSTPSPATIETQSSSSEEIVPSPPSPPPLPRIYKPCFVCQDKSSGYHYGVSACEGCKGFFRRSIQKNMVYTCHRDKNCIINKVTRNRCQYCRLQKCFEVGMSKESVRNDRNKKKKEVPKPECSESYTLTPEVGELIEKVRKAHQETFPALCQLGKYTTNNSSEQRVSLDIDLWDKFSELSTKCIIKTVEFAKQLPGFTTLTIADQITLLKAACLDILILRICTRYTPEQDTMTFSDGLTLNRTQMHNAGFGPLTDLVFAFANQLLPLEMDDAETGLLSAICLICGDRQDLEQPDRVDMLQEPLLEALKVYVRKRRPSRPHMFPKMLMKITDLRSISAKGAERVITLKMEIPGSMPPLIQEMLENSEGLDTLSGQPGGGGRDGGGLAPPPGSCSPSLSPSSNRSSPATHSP
Protocol: as §1

RARγ = target: T3, RARγ (Homo sapiens, UniProt P13631); experiment: Example 16: transactivation, MTV-TREp-Luc in HeLa cells; format: cell-based
T3 sequence (P13631 1-454): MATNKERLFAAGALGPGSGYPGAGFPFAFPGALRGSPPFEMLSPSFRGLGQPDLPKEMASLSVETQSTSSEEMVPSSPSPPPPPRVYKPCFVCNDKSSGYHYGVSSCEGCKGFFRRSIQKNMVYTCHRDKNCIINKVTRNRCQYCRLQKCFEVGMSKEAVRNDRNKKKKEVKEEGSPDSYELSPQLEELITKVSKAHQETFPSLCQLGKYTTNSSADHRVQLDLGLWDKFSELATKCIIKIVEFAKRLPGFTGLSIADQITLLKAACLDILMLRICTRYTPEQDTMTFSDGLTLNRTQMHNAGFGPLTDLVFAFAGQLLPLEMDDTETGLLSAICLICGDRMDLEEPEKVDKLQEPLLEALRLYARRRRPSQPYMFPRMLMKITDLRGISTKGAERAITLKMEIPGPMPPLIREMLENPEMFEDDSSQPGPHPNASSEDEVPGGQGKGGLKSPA

RARα [3] = target: T2, RARα; experiment: [3H]-ATRA displacement assay, baculovirus expressed receptor; format: binding; parameters: made in house; host or cells: baculovirus expression system
[4] = test system: 1,25-dihydroxyvitamin D3-dependent gene expression; experiment: Example 14: 1,25-dihydroxyvitamin D3 transactivation, MTV-VDRE-Luc in HeLa cells; format: cell-based; conditions: AGN 193109 10-100 nM coadministered
Protocol: Hela cells were transfected using the cationic liposome-mediated transfection procedure described by Feigner et al. in Proc. Natl. Acad. Sci. USA 84:7413 (1987). 5×10^4 cells were plated in 12-well multiwell plates and grown in DMEM supplemented with 10% FBS. Cells were cotransfected in serum-free medium using 2 μg/well of LIPOFECTAMINE reagent (Life Technologies, Inc.) with 0.7 μg of the reporter plasmid MTV-VDRE-Luc, containing two copies of the 1,25-dihydroxyvitamin D3 response element [NT] ID NO:4) from the mouse osteopontin gene (Ferrara et al. J. Biol. Chem. 269:2971 (1994)) ligated into the reporter plasmid ΔMTV-Luc (Heyman et al. in Cell 68:397 (1992)), and 0.3 μg of the plasmid pGEM3Z (Pharmacia, Inc.) as carrier DNA to bring the final concentration of DNA to 1.0 μg per well. After six hours of transfection, cells were fed with growth medium containing charcoal extracted FBS at a final concentration of 10%. […] Luciferase activity was measured as described above. This experimental system allowed a convenient method of monitoring and quantitating 1,25-dihydroxyvitamin D3-dependent gene expression.

RXRs = experiment: Affinity for the RXRs; format: binding
CaSki cells = experiment: Example 18: proliferation of CaSki cells; format: cell-based; conditions: 10^−6 M AGN 193109, no added retinoid agonist
Protocol: EGF was added to the retinoid treated cultures to give a final concentration of 20 ng/ml. […] The media was replaced with fresh media and each of the two retinoid compounds, as appropriate, every day. Cell numbers were determined using a COULTER counter as described above.

Cc1ccc(C2=CCC(C)(C)c3ccc(C#Cc4ccc(C(=O)O)cc4)cc32)cc1 [Compound 60, 4-[(5,6-dihydro-5,5-dimethyl-8-(4-methylphenyl)-2-naphthalenyl)ethynyl]benzoic acid]
inhibition of luciferase activity relative to ATRA alone (RARβ): greater than 50%
luciferase activity readings ([1]; AGN 193109 at 10^−8−10^−6 M (maximal inhibition)): approximately 16,000 rlu
concentration of maximal inhibition of luciferase activity ([1]; cells cotransfected with ER-RXR-α and RAR-γ-VP-16): approximately 10^−8 M
luciferase activity of triple transfectants ([1]; no other retinoid added, 18 hours): dose dependent decrease in luciferase activity
inhibition of luciferase activity relative to ATRA alone (RARα [2]): greater than 50%
inhibition of the response to 10^−9 M AGN 191183 (RARγ; 10^−9 M AGN 193109, HeLa cells, preliminary experiments): relatively ineffective
luciferase activity (RARγ; AGN 193109 10^−11 and 10^−10 M with AGN 191183 10^−10 or 10^−9 M): stimulation of luciferase activity over that of AGN 191183 alone
Kd (RARα [3]; Table 11, read-out: Kd (nM) RAR-α): 2 nM
pKd (RARα [3]; as stated in Example 8, read-out: Kd at RAR-α): 8.00
increase in activity of 1,25-dihydroxyvitamin D3 [4]: approximately 10 fold
affinity for the RXRs (RXRs): no measurable affinity
proliferation (CaSki cells): inhibited proliferation of the CaSki cervical epithelial cell line
